The results in this text go back to ChEMBL document CHEMBL1135272 (Bioorg Med Chem Lett, 2002).

Each structure is given as a SMILES string. pIC50: −log10 of the molar value.

Assay [1] deals with A549. Kind of assay: Inhibition of NFkB (transcription factor) activation in A549 human lung carcinoma cell line. The class given is functional, cell-based.
For assay [2], the system named is A549. As to the kind of experiment: Compound was tested for its ability to inhibit tumor necrosis factor alpha (TNF alpha) induced apoptosis in A549 human lung carcinoma cell line; NA=Not assayed. In kind it is functional, cell-based.
The test system of assay [3] is A549. Kind of assay: The compound was tested for its ability to inhibit tumor necrosis factor alpha (TNF alpha) induced apoptosis in A549 human lung carcinoma cell line. In kind it is functional, cell-based.
Assay [4] has as its system A549. Kind of assay: The compound was examined for its ability to block tumor necrosis factor alpha (TNF alpha) induced IL-8 production in A549 human lung carcinoma cell line using an ELISA. The class given is functional, cell-based.
Assay [5] relates to A549. Kind of assay: Inhibition of NFkB (transcription factor) activation in A549 human lung carcinoma cell line at 20 uM. The class given is functional.
Assay [6] has as its system A549. As to the kind of experiment: (§1) Compound was tested for its ability to inhibit tumor necrosis factor alpha (TNF alpha) induced apoptosis in A549 human lung carcinoma cell line at 20 uM concentration. In kind it is functional.
Assay [7] has as its system A549. As to the kind of experiment: Compound was tested for its ability to inhibit tumor necrosis factor alpha (TNF alpha) induced apoptosis in A549 human lung carcinoma cell line. In kind it is functional, cell-based.
Assay [8] relates to A549. The assay is described as §1. The class given is functional, cell-based.

Broadly, the pIC50 is the IC50 on a negative log10 scale, so that one unit is a factor of ten. The compound `CCCOC(=O)C1C2C(=O)CC(c3ccc(O)cc32)C1C(=O)OCCC[Si](C)(C)C` (centres undefined) had a pIC50 in assay [1] of 4.40. Further, the IC50 result in assay [2] was “Not Active”.
Regarding `C=CCOC(=O)C1C2C(=O)CC(c3ccc(O)cc32)C1C(=O)OCC[Si](C)(C)C` (centres undefined), the pIC50 was 5.30 in assay [3], 4.68 in assay [1] and 4.68 in assay [4].
The inhibition is the share of the control response that was lost under treatment. Consider `C=CCNC(=O)C1C2C(=O)CC(c3ccc(O)cc32)C1C(=O)OCC[Si](C)(C)C` (centres undefined), for which the values for the inhibition at 20 µM in assay [5] and in assay [6] were 19% and 18%, respectively.
For `C=CCNC(=O)NC1C2C(=O)CC(c3ccc(O)cc32)C1C(=O)OCC[Si](C)(C)C` (centres undefined), the inhibition at 20 µM in assay [5] came to 28%; in assay [6] it was 23%.
Regarding `C=CCOC(=O)NC1C2C(=O)CC(c3ccc(O)cc32)C1C(=O)OCC[Si](C)(C)C` (centres undefined), the pIC50 in assay [7] is 4.85. In assay [5], this compound yielded an inhibition at 20 µM of 34%.
Take `CCCOC(=O)C1C2C(=O)CC(c3ccc(OCCc4ccccn4)cc32)C1C(=O)OCC[Si](C)(C)C` (centres undefined): the pIC50 in assay [1] is 4.57; in assay [7], 5.40.
With `C[Si](C)(C)CCOC(=O)C1C2CC(=O)C(c3cc(O)ccc32)C1C(=O)OCc1cccc(F)c1` (centres undefined), the pIC50 in assay [3] was 4.92. The inhibition at 20 µM in assay [5] was 13%.
As for `C[Si](C)(C)CCOC(=O)C1C2CC(=O)C(c3cc(O)ccc32)C1C(=O)OCCN1CCOCC1` (centres undefined), the inhibition at 20 µM in assay [5] is 18%; in assay [6], 43%.
Consider `CCCOC(=O)C1C2C(=O)CC(c3ccc(OCC(=O)O)cc32)C1C(=O)OCC[Si](C)(C)C` (centres undefined), for which the inhibition at 20 µM amounted to 3% in assay [5] and 13% in assay [6].
With `CCCOC(=O)C1C2C(=O)CC(c3ccc(O)cc32)C1C(=O)OCCC(C)(C)C` (centres undefined), in assay [1], the negative logarithm of the IC50 (pIC50) is 4.39. For the same compound, in assay [2], the IC50 result is “Not Active”.
Regarding `CCCOC(=O)C1C2C(=O)CC(c3ccccc32)C1C(=O)OCC[Si](C)(C)C` (centres undefined), the pIC50 in assay [1] is 4.35. In assay [6], the inhibition at 20 µM turned out to be 38%.
Compound `CCCOC(=O)C1C2C(=O)CC(c3ccc(OCC)cc32)C1C(=O)OCC[Si](C)(C)C` (centres undefined) showed a pIC50 in assay [7] of 5.00. The same compound showed an inhibition at 20 µM in assay [5] of 43%.
Regarding `CCCOC(=O)C1C2C(=O)CC(c3ccc(OCc4ccccn4)cc32)C1C(=O)OCC[Si](C)(C)C` (centres undefined), the inhibition at 20 µM came to 31% in assay [5] and 47% in assay [6].
Turning to `CCCOC(=O)C1C2C(=O)CC(c3ccc(O)cc32)C1C(=O)OCC[Si](C)(C)C` (centres undefined), the negative logarithm of the IC50 (pIC50) in assay [1] is 4.82; in assay [8] it was 5.52; in assay [4] it was 4.85.
As for `C[Si](C)(C)CCOC(=O)C1C2CC(=O)C(c3cc(O)ccc32)C1NC(=O)OCc1ccc(-c2ccccc2)cc1` (centres undefined), the inhibition at 20 µM amounted to 27% in assay [5] and 0% in assay [6].
The corresponding values for `C[Si](C)(C)CCOC(=O)C1C2CC(=O)C(c3cc(O)ccc32)C1NC(=O)NCc1cccnc1` (centres undefined) are 30% and 11%.
